Patent US9249208B2, “Citrulline peptides derived from fibrin and recognized by rheumatoid arthritis specific autoantibodies, and the use thereof” (Biomerieux, priority 2004, dated 2016)
Marks after values point to notes of the source that are not given here. Where no end group is shown, it is not given here. [ ]: non-standard residue; d: D form. Cit = NC(=O)NCCC[C@H](N)C(=O)O

Tests used:
Format in all cases: binding, human
[1] = tested on: anti-citrullinated protein autoantibodies (ACPAs); experiment: ELISA comparing amidated and nonamidated β60-74Cit60,72,74 with serum mixtures A and B; conditions: for delta OD: coating in PBS, versus noncitrullinated β60-74, mean of two experiments
Source text: ELISA plates were coated with the peptide β60-74Cit60,72,74, in which the C-terminal function of the carboxy-terminal citrullyl residue is not amidated (form carrying a terminal COOH function, hereinafter referred to as “nonamidated form”), with the peptide […], in which the C-terminal function of the carboxy-terminal citrullyl residue is amidated (form carrying a terminal CONH2 function, hereinafter referred to as “amidated form”) and the noncitrullinated peptide β60-74 (in which the C-terminal function of the carboxy-terminal arginyl residue is not amidated), all diluted in PBS. The serum mixtures A and B described in Example 1 were tested according to the method described in Example 2. As in Example 2, the specific reactivity of the peptide in nonamidated form or in amidated form corresponded to the difference between the OD obtained with these two citrullinated peptides and that obtained with the noncitrullinated peptide β60-74. […] The results correspond to the mean of two experiments, each comprising two determinations.

[2] = tested on: anti-citrullinated protein autoantibodies (ACPAs); experiment: ELISA of citrullinated/native fibrin peptide pairs with serum mixtures A and B and control mixture (delta OD); conditions: mean of two determinations
Method: Each pair of peptides (citrullinated and noncitrullinated) was assayed by ELISA with a mixture, in equal parts, of 10 sera having no ACPAs (control mixture) and with the 2 mixtures A and B described in Example 1.
Each pair of peptides (native and citrullinated form) was tested on the same plate and a pair of control peptides—citrullinated “filaggrin” peptide cfc6 and its corresponding native peptide cf0 (Schellekens G A, 1998, mentioned above)—was included in each experiment, which made it possible to calculate an inter-assay coefficient of variation and to perform corrections.
All the incubations were carried out for 1 h at 4° C. and were followed by washing in PBS-0.1% Tween. The peroxidase activity was visualized with a solution of ortho-phenylenediamine (2 mg/ml—Sigma) in hydrogen peroxide (0.03%—Sigma). The reaction was stopped after 5 minutes by adding 4M sulfuric acid, and the optical density (OD) at 492 nm was measured by virtue of an automatic spectrophotometer (Multiskan, Thermo Labsystems).
The specific reactivity of the mixtures of sera with regard to the citrullinated peptides corresponded to the difference between the OD obtained with the citrullinated peptide and that obtained with the corresponding native peptide (delta OD). The results correspond to the mean of two determinations. Any citrullinated peptide making it possible to obtain a delta OD of greater than 0.250 for at least one of the two mixtures A and B after coating in at least one of the three buffers, was considered to be reactive.

[3] = tested on: anti-citrullinated protein autoantibodies (ACPAs); experiment: ELISA of reactive citrullinated fibrin peptides with the 20 individual sera of mixtures A and B; conditions: for Number of positive sera: sera with delta OD not <0.25 out of sera tested (20, or 10 of mixture A only); for delta OD: best coating buffer per peptide
Method: The 14 peptides carrying the most reactive epitopes (delta OD≧0.5 for one or other of the mixtures of serum (A and B) with at least one of the three coating buffers) were tested independently with the 20 sera constituting the mixtures A and B, in order to evaluate the reactivity profile of each of these peptides. The tests were carried out by ELISA under the same conditions as in Example 2 above, with the exception that, for each pair of peptides, the coating buffer selected was that that had made it possible to obtain the strongest reactivity with respect to this peptide during the screening (the buffer for which the sum of the delta ODs obtained respectively for the serum mixtures A and B was at a maximum). […] Thus, for each serum, the dilution that made it possible to obtain an OD of 1 by ELISA on deiminated fibrinogen was selected (Nogueira L, 2002, mentioned above). The dilutions ranged from 1/20 to 1/2700.

[4] = Mixture A of sera 1/50, coating buffer PBS pH 7.4
[5] = Mixture A of sera 1/50, coating buffer acetate pH 5.0
[6] = Mixture A of sera 1/50, coating buffer carbonate pH 9.0
[7] = Mixture B of sera 1/50, coating buffer PBS pH 7.4
[8] = Mixture B of sera 1/50, coating buffer acetate pH 5.0
[9] = Mixture B of sera 1/50, coating buffer carbonate pH 9.0

Substance	delta OD (citrullinated minus native peptide, 492 nm) [2, 4]	delta OD (citrullinated minus native peptide, 492 nm) [2, 5]	delta OD (citrullinated minus native peptide, 492 nm) [2, 6]	delta OD (citrullinated minus native peptide, 492 nm) [2, 7]	delta OD (citrullinated minus native peptide, 492 nm) [2, 8]	delta OD (citrullinated minus native peptide, 492 nm) [2, 9]	Number of positive sera [3]	delta OD ([3]; serum 97.0311, dilution 1/200)	delta OD ([3]; serum 97.0323, dilution 1/120)	delta OD ([3]; serum 97.0459, dilution 1/60)	delta OD ([3]; serum 97.0794, dilution 1/50)	delta OD ([3]; serum 97.0796, dilution 1/500)	delta OD ([3]; serum 97.0907, dilution 1/300)	delta OD ([3]; serum 97.1210, dilution 1/300)	delta OD ([3]; serum 97.1474, dilution 1/20)	delta OD ([3]; serum 97.1548, dilution 1/60)	further results
β60-74Cit60, 72, 74 nonamidated: citrullinated synthetic peptide, fibrin β-chain residues 60-74, C-terminal citrullyl not amidated (terminal COOH) (RPAPPPISGGGYRAR; HELM PEPTIDE1{[Cit].P.A.P.P.P.I.S.G.G.G.Y.[Cit].A.[Cit]}$$$$V2.0; N-terminus assumed; SMILES CC[C@H](C)[C@H](NC(=O)[C@@H]1CCCN1C(=O)[C@@H]1CCCN1C(=O)[C@@H]1CCCN1C(=O)[C@H](C)NC(=O)[C@@H]1CCCN1C(=O)[C@@H](N)CCCNC(N)=O)C(=O)N[C@@H](CO)C(=O)NCC(=O)NCC(=O)NCC(=O)N[C@@H](Cc1ccc(O)cc1)C(=O)N[C@@H](CCCNC(N)=O)C(=O)N[C@@H](C)C(=O)N[C@@H](CCCNC(N)=O)C(=O)O)	–	–	–	–	–	–	–	–	–	–	–	–	–	–	–	–	delta OD ([1]; Mixture A): 0.30; delta OD ([1]; Mixture B): 1.16
β60-74Cit60,72,74: citrullinated synthetic peptide, fibrin β-chain residues 60-74, C-terminal citrullyl amidated; fits SEQ ID NO: 1 X1PAPPPISGGGYX2AX3 (XPAPPPISGGGYXAX; HELM PEPTIDE1{[Cit].P.A.P.P.P.I.S.G.G.G.Y.[Cit].A.[Cit].[am]}$$$$V2.0; N-terminus assumed; SMILES CC[C@H](C)[C@H](NC(=O)[C@@H]1CCCN1C(=O)[C@@H]1CCCN1C(=O)[C@@H]1CCCN1C(=O)[C@H](C)NC(=O)[C@@H]1CCCN1C(=O)[C@@H](N)CCCNC(N)=O)C(=O)N[C@@H](CO)C(=O)NCC(=O)NCC(=O)NCC(=O)N[C@@H](Cc1ccc(O)cc1)C(=O)N[C@@H](CCCNC(N)=O)C(=O)N[C@@H](C)C(=O)N[C@@H](CCCNC(N)=O)C(N)=O)	2.06	1.02	1.27	2.69	2.83	2.72	14/20	1.93	1.73	0.71^c	0.75	0.36	1.17	3.33	0.37	1.48	delta OD ([3]; serum 95.0256, dilution 1/35): 3.48; delta OD ([3]; serum 97.0169, dilution 1/400): 0.31; delta OD ([3]; serum 97.0244, dilution 1/2700): 1.23; delta OD ([3]; serum 97.0468, dilution 1/700): 1.08; delta OD ([3]; serum 97.0506, dilution 1/75): 1.93; delta OD ([1]; Mixture A): 2.13; delta OD ([1]; Mixture B): 2.74; reactivity of amidated versus nonamidated form ([1]; serum mixtures A and B, PBS coating): clearly greater than that of the nonamidated form
β210-224Cit224: citrullinated synthetic peptide, fibrin β-chain residues 210-224 (QKLESDVSAQMEYC[Cit])	0.29	0.25	1.14	0.60	0.00	1.56	6/20	0.46	0.36	–	–	0.67	0.33	0.72	–	–	delta OD ([3]; serum 97.1795, dilution 1/50): 0.49
α561-575Cit573: citrullinated synthetic peptide, fibrin α-chain residues 561-575 (SSHHPGIAEFPS[Cit]GK)	0.30	0.05	0.01	0.52	0.14	0.17	5/20	0.30	–	0.38	1.95	–	–	–	0.71	0.53	–
β281-295Cit285,294: citrullinated synthetic peptide, fibrin β-chain residues 281-295 (second series) (VIQN[Cit]QDGSVDFG[Cit]K)	0.60	0.12	0.61	0.75	0.11	0.71	6/20	–	1.16	2.22	0.26	–	–	–	0.36	–	delta OD ([3]; serum 97.0506, dilution 1/75): 1.80; delta OD ([3]; serum 97.0524, dilution 1/200): 0.25
α546-560Cit547: citrullinated synthetic peptide, fibrin α-chain residues 546-560 (S[Cit]GSESGIFTNTKES)	0.74	0.38	0.33	0.15	0.05	0.16	2/10	–	–	–	–	1.18	–	–	–	–	delta OD ([3]; serum 97.0530, dilution 1/50): 0.44
α621-635Cit621,627,630: citrullinated synthetic peptide, fibrin α-chain residues 621-635; fits SEQ ID NO: 12 X1GHAKSX2PVX3GIHTS ([Cit]GHAKS[Cit]PV[Cit]GIHTS)	1.57	0.25	1.17	1.51	0.18	1.20	10/20	0.37	–	–	–	0.69	1.04	0.37	0.59	3.29	delta OD ([3]; serum 97.0169, dilution 1/400): 0.80; delta OD ([3]; serum 97.0244, dilution 1/2700): 0.50; delta OD ([3]; serum 97.0388, dilution 1/50): 2.71; delta OD ([3]; serum 97.0468, dilution 1/700): 0.81
